No end group written: not given here. *: point of attachment. αGalNAc = CC(=O)N[C@@H]1[C@@H](O)[C@@H](O)[C@@H](CO)O[C@@H]1*
How the values were obtained:
Type in all cases: cell-based, Escherichia coli
E. coli SQ171 U2609C = experiment: Antibiotic susceptibility (growth) assay, E. coli SQ171 U2609C; details: relative to no compound, mean of 3 replicas
Description: (§1) In addition, we also used a strain with a U2609C–A752G double mutation, which would be predicted to restore Watson–Crick base pairing, and with three hydrogen bonds could possibly make breaking the base pair harder than with the canonical two hydrogen bonds for the A–U base pair. As a control, we also tested Dro that lacks the α-D-GalNAc modification, which we predict (assuming that Dro binds analogously to Dro1) should not interact with U2609 and, therefore, not be influenced by the conformation of the U2609–A752 base pair.
(§2) Strains E. coli Keio wild-type and E. coli Keio ΔsbmA used from the Keio knockout collection (Horizon, https://horizondiscovery.com). Wild-type E. coli SQ110 (ΔrrnGADBHC(ptRNA67))[47] and SQ171 (ΔrrnGADEHBC(pKK3535, ptRNA67))[47] strains and related mutants E. coli SQ110 A2059G and E. coli SQ171 A2503G were obtained from the previous Api137 study. E. coli strains SQ171 bearing A752G, U2609C and A752G:U2609C mutations[43] and E. coli SQ171 U2609G[48] were generated previously.
(§3) The susceptibility of E. coli strains to compounds was evaluated by monitoring the bacterial growth in presence of increasing concentrations of the compound of interest. In brief, bacteria were inoculated in a total volume of 100 μl of medium contained in a well of a 96-well microplate (round bottom, with cap, sterile; Sarstedt). The medium used was either LB, as rich medium, or ATCC medium (778 Davis and Mingioli glucose minimal medium), as minimal medium. Before inoculation, bacteria were grown up to exponential phase and then inoculated into the culture mix, containing selective antibiotic if necessary, with an initial optical density at 600 nm (OD600) of 0.05. Values measured from wells containing just the medium were used as a blank. The growth in each well was monitored by measuring the OD600 every 10 minutes for a total of 20 hours at 37 °C with shaking using a plate reader (Tecan Infinite 200 PRO). The inhibition resulting from a compound’s concentration was evaluated by normalizing the OD600 at t = 12 hours (corresponding to the end of the log phase) from the treated culture to the untreated one. For each compound, the concentrations tested were 5 μM, 10 μM and 30 μM. Each single titration assay was done in triplicate with individually prepared culture mixes. For each concentration, the standard deviation was calculated, taking into account each single replica and its specific technical error from the plate reader.

E. coli SQ171 A752G = experiment: Antibiotic susceptibility (growth) assay, E. coli SQ171 A752G; details: relative to no compound, mean of 3 replicas
Description: as §1, §2, §3

E. coli SQ110 A2059G = experiment: Antibiotic susceptibility (growth) assay, E. coli SQ110 A2059G; details: A2059G mutation; LB medium; 5, 10, 30 μM
Description: as §2
(§4) The susceptibility of E. coli strains to compounds was evaluated by monitoring the bacterial growth in presence of increasing concentrations of the compound of interest. […] Values measured from wells containing just the medium were used as a blank. The growth in each well was monitored by measuring the OD600 every 10 minutes for a total of 20 hours at 37 °C with shaking using a plate reader (Tecan Infinite 200 PRO). The inhibition resulting from a compound’s concentration was evaluated by normalizing the OD600 at t = 12 hours (corresponding to the end of the log phase) from the treated culture to the untreated one. […] For each concentration, the standard deviation was calculated, taking into account each single replica and its specific technical error from the plate reader.

E. coli SQ171 A2503G = experiment: Antibiotic susceptibility (growth) assay, E. coli SQ171 A2503G; details: A2503G mutation; LB medium; 5, 10, 30 μM
Description: as §2, §4

[1] = system: E. coli Keio wt (BW25113); experiment: Antibiotic susceptibility (growth) assay, E. coli Keio wild-type; details: 30 μM peptide; for Average of normalized growth: average of three biological replicates; for growth inhibition in rich medium: rich (LB) medium
Description: Many PrAMPs use the SbmA transporter to pass through the E. coli inner membrane[4],[10],[31]; however, whether drosocin also uses SbmA remains, to our knowledge, unknown. To address this, we monitored the effect of the presence of diverse drosocin peptides (Fig. 1a,b and Supplementary Fig. 1a) on the growth of the wild-type E. coli strain BW25113 containing SbmA or lacking SbmA (ΔsbmA) (Fig. 1c,d). We compared unmodified drosocin (Dro) with various modified forms (Fig. 1a,b). The modified forms included the naturally occurring Dro1 and Dro2 that carry either a monosaccharide (α-D-GalNAc) or disaccharide (β-D-Gal(1→3)-α-D-GalNAc) attached to Thr11, respectively (Fig. 1b). In addition, we examined the previously reported[23],[24] drosocin derivatives bearing β-D-Maltosyl (Dro3), α-D-GlcNAc (Dro4), β-D-Gal (Dro5), β-D-Glc (Dro6), β-D-Lactosyl (Dro7) and β-D-Cellobiosyl (Dro8) modifications on Thr11 (Fig. 1a,b and Supplementary Fig. 1a). Finally, we also included in our analysis the synthetic unmodified drosocin derivative with proline substitutions at positions 7, 11 and 12 (Dro-3P) (Fig. 1a), which was previously reported to have similar antimicrobial activity to the monosaccharide form of drosocin[25]. Growth was monitored in both rich (LB) and minimal medium in the presence of 30 μM of each peptide and normalized with the growth in the absence of the compounds (Methods). […] We also observed no inhibition for Dro2 nor for any of the β-linked disaccharides (Dro3, Dro6 or Dro7). […] By contrast, all drosocin peptides inhibited growth of the E. coli BW25113 strain in minimal medium, albeit to different extents (Fig. 1d).
as §2, §3

E. coli SQ171 U2609G = experiment: Antibiotic susceptibility (growth) assay, E. coli SQ171 U2609G; details: relative to no compound, mean of 3 replicas
Description: as §1, §2, §3

| Substance | OD600 at t = 12 h, Normalized, Average (E. coli SQ171 U2609C; 5 μM) [%] | OD600 at t = 12 h, Normalized, Average (E. coli SQ171 U2609C; 30 μM) [%] | OD600 at t = 12 h, Normalized, Average (E. coli SQ171 A752G; 5 μM) [%] | OD600 at t = 12 h, Normalized, Average (E. coli SQ171 A752G; 30 μM) [%] | resistance of mutant compared to the wild-type strain (E. coli SQ110 A2059G) | resistance of mutant compared to the wild-type strain (E. coli SQ171 A2503G) | Average of normalized growth ([1]; LB rich medium) [%] | Average of normalized growth ([1]; Minimal medium) [%] | growth inhibition in minimal medium [1] | growth inhibition in rich medium [1] | OD600 at t = 12 h, Normalized, Average (E. coli SQ171 U2609G; 5 μM) [%] | OD600 at t = 12 h, Normalized, Average (E. coli SQ171 U2609G; 30 μM) [%] |
| --- | --- | --- | --- | --- | --- | --- | --- | --- | --- | --- | --- | --- |
| Dro1: naturally occurring drosocin carrying monosaccharide α-D-GalNAc attached to Thr11 (GKPRPYSPRPT(αGalNAc)SHPRPIRV; UniProt P36193 22-40, looked up) | 40 | 5 | 70 | 7 | more resistant | more resistant | 38 | 6 | highest inhibition | growth inhibition | 50 | 8 |
| Dro: unmodified drosocin, 19 amino acid proline-rich antimicrobial peptide lacking O-glycosylation (GKPRPYSPRPTSHPRPIRV; Drosocin; UniProt P36193 22-40, looked up) | 92 | 71 | 84 | 59 | – | – | 98 | 87 | lowest | inactive | 87 | 59 |

Source: paper PMC10449632, “Structural basis for translation inhibition by the glycosylated drosocin peptide” (Nature Chemical Biology, 2023)
